Assay [1] concerns VSV-G pseudotypes. It counts as cell-based, vesicular stomatitis virus.
In assay [2] the test system is pseudotypes expressing H5HA and N1NA. It counts as cell-based, H5N1.
Assay [3] relates to H5HA and N1NA pseudotypes. It counts as cell-based, H5N1.
Assay [4] has as its system HIV-1 envelope pseudotypes. The assay is classed as cell-based.

This is an account of results in US20100137412A1 (priority 2008, published 2010).

Consider `CCOC(=O)C1=C[C@@H](OC(CC)CC)[C@H](NC(C)=O)[C@@H](N)C1` [oseltamivir phosphate], for which the “effect on transduction efficiency” value in assay [1] is listed as “did not reduce”; in assay [2] it was “marked dose-dependent decrease”; in assay [3], “did not reduce”; in assay [4] it was “did not reduce”.
